Assay results taken from publication PMC7036753, “Lipidated Analogs of the LL-37-Derived Peptide Fragment KR12—Structural Analysis, Surface-Active Properties and Antimicrobial Activity” (International Journal of Molecular Sciences, 2020).
≈ marks a conversion by molar mass, not a printed value. Peptide text beside a SMILES is read from it. * marks the point of attachment. Octanoyl = CCCCCCCC(=O)*

Assays:
E. faecium ATCC 700221 = type: cell-based, Enterococcus faecium; settings: ATCC 700221, 18 h
Description: (§1) Examination of antimicrobial activity of the test compounds was conducted on reference strains of bacteria assigned to ESKAPE group of pathogens: Enterococcus faecium ATCC 700221, Klebsiella pneumoniae ATCC 700603, Acinetobacter baumannii ATCC BAA-1605, Pseudomonas aeruginosa ATCC 9027, Klebsiella aerogenes ATCC 13048 (formerly Enterobacter aerogenes) and reference strains of Staphylococcus aureus, namely: S. aureus ATCC 25923, S. aureus ATCC 6538, S. aureus ATCC 33591 (MRSA), S. aureus ATCC 9144 and S. aureus ATCC 12598. All the strains were stored at −80 °C in Roti®-Store cryo vials (Carl Roth GmbH, Karlsruhe, Germany) and before the tests were transferred into fresh Mueller-Hinton Medium (BioMaxima, Lublin, Poland) and incubated for 24 h at 37 °C. Subsequently, each bacterial inoculum was seeded on Mueller-Hinton Agar plates (BioMaxima) and incubated again for 24 h. The cultures prepared in this way were used in further antimicrobial assays and prepared as described above. The MIC values were determined by the broth microdilution method according to Clinical and Laboratory Standards Institute Protocol. For this purpose, initial inoculums of bacteria (0.5 × 10^5 colony forming unit (CFU)/mL) in Mueller–Hinton Broth were exposed to the ranging concentrations of compounds (0.5–256 µg/mL) and incubated for 18 h at 37 °C. The experiments were conducted on 96-well microtiter plates, with a final volume of 100 µL. Cell densities were adjusted spectrophotometrically (Multiskan™ GO Microplate Spectrophotometer, Thermo Scientific) at 600 nm. The MICs were taken as the lowest drug concentration at which a visible growth of microorganisms was inhibited. All experiments were conducted in triplicate and included positive (growth) and negative (sterility) controls.

[1] = test system: K. pneumoniae ATCC 700603; type: cell-based, Klebsiella pneumoniae; settings: ATCC 700603, 18 h
Description: as §1

[2] = test system: A. baumannii ATCC BAA-1605; type: cell-based, Acinetobacter baumannii; settings: ATCC BAA-1605, 18 h
Description: as §1

P. aeruginosa ATCC 9027 = type: cell-based, Pseudomonas aeruginosa; settings: ATCC 9027, 18 h
Description: as §1

K. aerogenes ATCC 13048 = type: cell-based, Klebsiella aerogenes; settings: ATCC 13048, 18 h
Description: as §1

S. aureus ATCC 12598 = type: cell-based, Staphylococcus aureus; settings: ATCC 12598, 18 h
Description: as §1

S. aureus ATCC 25923 = type: cell-based, Staphylococcus aureus; settings: ATCC 25923, 18 h
Description: as §1

[3] = test system: S. aureus ATCC 33591 (MRSA); type: cell-based, Staphylococcus aureus; settings: ATCC 33591, 18 h
Description: as §1

S. aureus ATCC 6538 = type: cell-based, Staphylococcus aureus; settings: ATCC 6538, 18 h
Description: as §1

S. aureus ATCC 9144 = type: cell-based, Staphylococcus aureus; settings: ATCC 9144, 18 h
Description: as §1

[4] = test system: S. aureus ATCC 12598 biofilm; type: cell-based, Staphylococcus aureus; settings: ATCC 12598, 24 h
Description: (§2) The MBECs values were determined according to the method reported previously. Briefly, 24-h cultures of S. aureus, namely: S. aureus ATCC 25923, S. aureus ATCC 6538, S. aureus ATCC 33591 (MRSA), S. aureus ATCC 9144 and S. aureus ATCC 12598 were diluted to a concentration of 0.5 × 10^7 CFU/mL and added to the test wells of polystyrene microdilution flat-bottom plates. After 24-h of incubation at 37 °C, the wells were rinsed three times with PBS to remove non-adherent cells. Subsequently, 100 μL of the test compounds over a concentration range 0.5–256 µg/mL were added to each well and incubated again for 24 h at 37 °C. After this period, 20 μL of the resazurin (7-hydroxy-3H-phenoxazin-3-one-10-oxide, 4 mg/mL) solution was added to each well. After 1 h of incubation, the MBECs were read out. The determined values were recorded as the lowest concentration at which the reduction of resazurin (from blue to pink) was lower or equal to 10 ± 0.5% as compared to the positive (100%) and negative (0%) controls. All experiments were performed in triplicate.

[5] = test system: S. aureus ATCC 25923 biofilm; type: cell-based, Staphylococcus aureus; settings: ATCC 25923, 24 h
Description: as §2

[6] = test system: S. aureus ATCC 33591 (MRSA) biofilm; type: cell-based, Staphylococcus aureus; settings: ATCC 33591, 24 h
Description: as §2

[7] = test system: S. aureus ATCC 6538 biofilm; type: cell-based, Staphylococcus aureus; settings: ATCC 6538, 24 h
Description: as §2

[8] = test system: S. aureus ATCC 9144 biofilm; type: cell-based, Staphylococcus aureus; settings: ATCC 9144, 24 h
Description: as §2

[9] = test system: human keratinocytes (HaCaT); type: cell-based; settings: 24 h
Description: The cytotoxicity of test compounds (IC50) was evaluated for human keratinocytes (HaCaT, ATCC) using classic MTT assay on 96-well plates. In this assay, a colorimetric determination of the cell metabolic activity was carried out. Specifically, the color intensity reflects the number of live cells that can be measured spectrophotometrically. […] A day after plating 500 cells per well, a series of concentrations (0.5–500 μg/mL) of the test compounds were added. Dimethyl sulfoxide (DMSO) was used as a control in cells at a final concentration of 1.0% (v/v), which was related to the maximal concentration of the solvent compounds used in the experiment. After 24 h of incubation with test compounds, a medium containing 1 mg/mL of MTT was added up to a final concentration of 0.5 mg/mL and subsequently incubated at 37 °C for 4 h. Then, the medium was aspirated and the formazan product was solubilized with DMSO. The background absorbance at 630 nm was subtracted from that at 570 nm for each well (Epoch, BioTek Instruments, Winooski, VT, USA). Six replicates were conducted for each concentration. All experiments were repeated at least twice and the resulting IC50 values were calculated with a GraFit 7 software (v. 7.0, Erithacus, Berkley, CA, USA).

ESKAPE strains = type: cell-based; settings: 24 h
Description: as §1, with “For this purpose, initial inoculums of bacteria (0.5 × 10^5 colony forming unit (CFU)/mL) in Mueller–Hinton Broth were exposed to the ranging concentrations of compounds (0.5–256 µg/mL) and incubated for 18 h at 37 °C.” left out, “The MICs were taken as the lowest drug concentration at which a visible growth of microorganisms was inhibited. All experiments were conducted in triplicate and included positive (growth) and negative (sterility) controls.” left out

[10] = test system: reference strains of S. aureus; type: cell-based, Staphylococcus aureus; settings: reference strains of, 24 h
Description: as §1, with “For this purpose, initial inoculums of bacteria (0.5 × 10^5 colony forming unit (CFU)/mL) in Mueller–Hinton Broth were exposed to the ranging concentrations of compounds (0.5–256 µg/mL) and incubated for 18 h at 37 °C.” left out

[11] = test system: biofilm of S. aureus strains; assay: MBEC over reference strains of S. aureus; type: cell-based, Staphylococcus aureus
Description: as §2

Question: How did the MIC (E. faecium ATCC 700221) turn out when `CCCCCCCC(=O)N[C@@H](CCCCN)C(=O)N[C@@H](CCCNC(=N)N)C(=O)N[C@H](C(=O)N[C@H](C(=O)N[C@@H](CCC(N)=O)C(=O)N[C@@H](CCCNC(=N)N)C(=O)N[C@H](C(=O)N[C@@H](CCCCN)C(=O)N[C@@H](CC(=O)O)C(=O)N[C@@H](Cc1ccccc1)C(=O)N[C@@H](CC(C)C)C(=O)N[C@@H](CCCNC(=N)N)C(N)=O)[C@@H](C)CC)C(C)C)[C@@H](C)CC` [IV, C8-KR12-NH2] (Octanoyl-KRIVQRIKDFLR-NH2) was run?
Answer: The MIC was 1 µg/mL (≈ 0.589 µM).

Question: What about the MIC [1] of the same compound?
Answer: The MIC was 2 µg/mL (≈ 1.18 µM).

Question: What about the MIC [2] of the same compound?
Answer: Its MIC is 2 µg/mL (≈ 1.18 µM).

Question: What about the MIC (P. aeruginosa ATCC 9027) of the same compound?
Answer: Its MIC is 2 µg/mL (≈ 1.18 µM).

Question: And the MIC (K. aerogenes ATCC 13048)?
Answer: Its MIC is 2 µg/mL (≈ 1.18 µM).

Question: What about the MIC (S. aureus ATCC 12598) of the same compound?
Answer: The MIC was 4 µg/mL (≈ 2.36 µM).

Question: What about the MIC (S. aureus ATCC 25923) of the same compound?
Answer: Its MIC is 2 µg/mL (≈ 1.18 µM).

Question: And the MIC [3]?
Answer: Its MIC is 2 µg/mL (≈ 1.18 µM).

Question: And the MIC (S. aureus ATCC 6538)?
Answer: Its MIC is 2 µg/mL (≈ 1.18 µM).

Question: What about the MIC (S. aureus ATCC 9144) of the same compound?
Answer: The MIC was 2 µg/mL (≈ 1.18 µM).

Question: What about the MBEC [4] of the same compound?
Answer: The MBEC was 4 µg/mL.

Question: And the MBEC [5]?
Answer: The MBEC was 8 µg/mL.

Question: And the MBEC [6]?
Answer: The MBEC was 4 µg/mL.

Question: And the MBEC [7]?
Answer: Its MBEC is 16 µg/mL.

Question: What about the MBEC [8] of the same compound?
Answer: The MBEC was 4 µg/mL.

Question: What about the IC50 [9] of the same compound?
Answer: Its IC50 is 3.23 µg/mL (≈ 1.9 µM).

Question: And the MIC range (ESKAPE strains)?
Answer: The MIC range was 1 to 4 µg/mL.

Question: And the “GM (geometric mean of the MIC values against S. aureus)” value [10]?
Answer: Its value is 2.30 µg/mL.

Question: And the MBEC range [11]?
Answer: The MBEC range was 4 to 16 µg/mL.
